Results reported in BindingDB's records for doi:10.1111/cbdd.12836 (Korea Institute of Science and Technology, 2017).

What was measured:
[1] = target: Serine/threonine-protein kinase B-raf [V600E] (Homo sapiens, UniProt P15056, V600E); test: In vitro Enzyme Assay; conditions: pH 7.5; 25 °C
Procedure: (§1) Reaction Biology Corporation Kinase HotSpotSM service: In a final reactionvolume of 25 μL, kinase (5-10 mU) is incubated with 25 mM Tris pH 7.5, 0.02 mM ethylene glycol tetracetic acid (EGTA), 0.66 mg/mL myelin basic protein, […], and [γ33P-ATP] (specific activity approx. 500 c.p.m./pmol,concentration as required). The reaction is initiated by the addition of the Mg-ATP mix. After incubation for 40 min at room temperature, the reaction is stopped by the addition of 5 μL of a 3% phosphoric acid solution. About 10 μL ofthe reaction solution is then spotted onto a P30 filtermat and washed three times for 5 min in 75 mM phosphoric acid and once in methanol prior to drying and scintillation counting.

[2] = target: RAF proto-oncogene serine/threonine-protein kinase (Homo sapiens, UniProt P04049); test: In vitro Enzyme Assay; conditions: pH 7.5; 25 °C
Procedure: as §1

Chain of RAF proto-oncogene serine/threonine-protein kinase (P04049 whole entry): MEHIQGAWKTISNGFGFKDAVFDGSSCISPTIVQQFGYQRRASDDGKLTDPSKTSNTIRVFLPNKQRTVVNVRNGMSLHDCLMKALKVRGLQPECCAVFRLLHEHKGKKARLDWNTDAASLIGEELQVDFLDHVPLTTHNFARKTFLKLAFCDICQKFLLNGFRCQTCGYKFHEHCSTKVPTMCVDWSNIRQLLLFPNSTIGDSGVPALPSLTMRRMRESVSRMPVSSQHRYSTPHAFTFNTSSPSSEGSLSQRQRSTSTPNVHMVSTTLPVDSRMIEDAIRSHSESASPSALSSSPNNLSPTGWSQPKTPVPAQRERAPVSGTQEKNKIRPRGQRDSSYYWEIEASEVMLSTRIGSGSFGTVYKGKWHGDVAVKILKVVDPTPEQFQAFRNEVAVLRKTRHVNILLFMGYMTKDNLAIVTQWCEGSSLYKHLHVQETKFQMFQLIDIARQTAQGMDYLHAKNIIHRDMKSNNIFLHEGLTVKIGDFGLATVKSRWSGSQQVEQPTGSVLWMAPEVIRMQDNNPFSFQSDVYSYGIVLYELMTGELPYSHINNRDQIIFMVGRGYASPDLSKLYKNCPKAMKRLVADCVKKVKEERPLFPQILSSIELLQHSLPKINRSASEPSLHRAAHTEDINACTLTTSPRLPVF
Chain of Serine/threonine-protein kinase B-raf [V600E] (P15056 2-766 V600E limits assumed): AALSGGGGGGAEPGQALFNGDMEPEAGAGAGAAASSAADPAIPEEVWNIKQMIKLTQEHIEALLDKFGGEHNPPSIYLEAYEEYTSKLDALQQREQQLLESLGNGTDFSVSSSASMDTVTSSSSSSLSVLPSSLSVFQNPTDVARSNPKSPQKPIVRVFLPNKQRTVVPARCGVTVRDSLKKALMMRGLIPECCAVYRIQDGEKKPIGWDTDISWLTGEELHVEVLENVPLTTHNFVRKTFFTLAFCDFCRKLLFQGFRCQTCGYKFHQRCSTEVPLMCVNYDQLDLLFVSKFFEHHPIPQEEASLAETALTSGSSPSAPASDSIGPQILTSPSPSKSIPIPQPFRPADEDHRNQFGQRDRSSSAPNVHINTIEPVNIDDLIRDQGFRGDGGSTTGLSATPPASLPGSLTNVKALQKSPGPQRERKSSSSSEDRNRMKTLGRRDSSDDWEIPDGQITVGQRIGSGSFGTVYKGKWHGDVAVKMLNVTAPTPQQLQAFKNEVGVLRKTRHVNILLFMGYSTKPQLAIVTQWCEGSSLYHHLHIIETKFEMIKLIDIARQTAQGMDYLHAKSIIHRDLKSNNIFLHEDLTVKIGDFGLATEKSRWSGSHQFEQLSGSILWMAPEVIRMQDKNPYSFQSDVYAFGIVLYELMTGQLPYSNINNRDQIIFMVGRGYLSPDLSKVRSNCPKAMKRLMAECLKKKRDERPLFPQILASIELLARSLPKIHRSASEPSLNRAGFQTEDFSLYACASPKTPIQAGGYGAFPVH

IC50 [1] [µM] | IC50 [2] [µM] | SMILES
> 100 | 92.6 | CNC(=O)c1cc(Oc2cccc3nc(Nc4cccc(C(C)(C)C)c4)ccc23)ccn1 [4-((2-((3-(Tert-butyl)phenyl)amino)quinolin-5-yl)oxy)-N-methylpicolinamide (6d)]
> 100 | > 100 | CNC(=O)c1cc(Oc2cccc3nc(Nc4ccc(Cl)c(C(F)(F)F)c4)ccc23)ccn1 [4-((2-((4-Chloro-3-(trifluoromethyl)phenyl)amino)quinolin-5-yl)oxy)-N-methylpicolinamide (6j)]
